Source: the NIST ThermoML archive (doi:10.1021/je0340755)

Test: xn = mol fraction of the nth substance listed
Conditions: 101.3 kPa, Liquid; for viscosity: Capillary tube (Ostwald / Ubbelohde) method

CC(O)CO (centres undefined) [1,2-propanediol] + O
Conditions | mass density [kg/m3] | speed of sound [m/s] | viscosity [mPa·s]
298.15 K, x2 = 0.044 | 1033.39 | 1511.4 | 41.25
298.15 K, x2 = 0.0987 | 1034.15 | 1518.3 | 38.41
298.15 K, x2 = 0.1484 | 1034.84 | 1523 | 35.74
298.15 K, x2 = 0.2498 | 1036.3 | 1531.6 | 30.2
298.15 K, x2 = 0.3494 | 1037.8 | 1551.3 | 24.83
298.15 K, x2 = 0.4494 | 1039.24 | 1581.6 | 19.71
298.15 K, x2 = 0.5029 | 1039.87 | 1602.9 | 17.14
298.15 K, x2 = 0.5499 | 1040.27 | 1622.2 | 15
298.15 K, x2 = 0.5597 | 1040.33 | 1626.9 | 14.56
298.15 K, x2 = 0.6501 | 1040.2 | 1660.5 | 10.84
298.15 K, x2 = 0.7499 | 1037.73 | 1687.6 | 7.287
298.15 K, x2 = 0.85 | 1030.31 | 1676.8 | 4.325
298.15 K, x2 = 0.9003 | 1023.26 | 1642.7 | 3.049
298.15 K, x2 = 0.9115 | 1021.26 | 1632.5 | 2.782
298.15 K, x2 = 0.9154 | 1020.51 | 1627.5 | 2.692
298.15 K, x2 = 0.927 | 1018.16 | 1614.3 | 2.425
298.15 K, x2 = 0.9367 | 1016.02 | 1602.1 | 2.208
298.15 K, x2 = 0.9504 | 1012.69 | 1582.9 | 1.907
298.15 K, x2 = 0.9551 | 1011.46 | 1577.5 | 1.806
298.15 K, x2 = 0.96 | 1010.13 | 1570.2 | 1.701
298.15 K, x2 = 0.9696 | 1007.36 | 1554.1 | 1.501
298.15 K, x2 = 0.9797 | 1004.21 | 1535.9 | 1.294
298.15 K, x2 = 0.9902 | 1000.65 | 1518 | 1.083
298.15 K, x2 = 0.9923 | 999.9 | 1513.6 | 1.041
298.15 K, x2 = 0.9948 | 998.99 | 1508.4 | 0.992
308.15 K, x2 = 0.044 | 1026.01 | 1502.9 | 23.03
308.15 K, x2 = 0.0987 | 1026.76 | 1509.5 | 21.43
308.15 K, x2 = 0.1484 | 1027.45 | 1513.1 | 19.93
308.15 K, x2 = 0.2498 | 1028.92 | 1524.5 | 16.8
308.15 K, x2 = 0.3494 | 1030.43 | 1541.8 | 13.77
308.15 K, x2 = 0.4494 | 1031.91 | 1565.2 | 10.9
308.15 K, x2 = 0.5029 | 1032.59 | 1581.4 | 9.465
308.15 K, x2 = 0.5499 | 1033.05 | 1598.4 | 8.274
308.15 K, x2 = 0.5597 | 1033.12 | 1602.2 | 8.034
308.15 K, x2 = 0.6501 | 1033.19 | 1640 | 5.979
308.15 K, x2 = 0.7499 | 1031.14 | 1672.3 | 4.049
308.15 K, x2 = 0.85 | 1024.53 | 1660.9 | 2.473
308.15 K, x2 = 0.9003 | 1018.14 | 1628.3 | 1.81
308.15 K, x2 = 0.9115 | 1016.3 | 1618.4 | 1.673
308.15 K, x2 = 0.9154 | 1015.63 | 1614.8 | 1.626
308.15 K, x2 = 0.927 | 1013.47 | 1603.4 | 1.491
308.15 K, x2 = 0.9367 | 1011.51 | 1593.2 | 1.379
308.15 K, x2 = 0.9504 | 1008.45 | 1578 | 1.227
308.15 K, x2 = 0.9551 | 1007.32 | 1572.6 | 1.177
308.15 K, x2 = 0.96 | 1006.1 | 1566.9 | 1.124
308.15 K, x2 = 0.9696 | 1003.55 | 1555.5 | 1.023
308.15 K, x2 = 0.9797 | 1000.65 | 1543.3 | 0.919
308.15 K, x2 = 0.9902 | 997.36 | 1530.7 | 0.815
308.15 K, x2 = 0.9923 | 996.67 | 1528.2 | 0.794
308.15 K, x2 = 0.9948 | 995.83 | 1525.2 | 0.769
318.15 K, x2 = 0.044 | 1017.94 | 1451.7 | –
318.15 K, x2 = 0.0987 | 1018.71 | 1458.8 | –
318.15 K, x2 = 0.1484 | 1019.41 | 1463.2 | –
318.15 K, x2 = 0.2498 | 1020.89 | 1476.1 | –
318.15 K, x2 = 0.3494 | 1022.37 | 1495.1 | –
318.15 K, x2 = 0.4494 | 1023.79 | 1520.3 | –
318.15 K, x2 = 0.5029 | 1024.44 | 1537.6 | 5.202
318.15 K, x2 = 0.5499 | 1024.88 | 1555.5 | 4.639
318.15 K, x2 = 0.5597 | 1024.96 | 1559.6 | 4.528
318.15 K, x2 = 0.6501 | 1025.1 | 1599.9 | 3.576
318.15 K, x2 = 0.7499 | 1023.4 | 1637.6 | 2.675
318.15 K, x2 = 0.85 | 1017.63 | 1637.9 | 1.864
318.15 K, x2 = 0.9003 | 1011.96 | 1615 | 1.462
318.15 K, x2 = 0.9115 | 1010.33 | 1607.7 | 1.37
318.15 K, x2 = 0.9154 | 1009.72 | 1605 | 1.338
318.15 K, x2 = 0.927 | 1007.79 | 1596.5 | 1.242
318.15 K, x2 = 0.9367 | 1006.03 | 1589 | 1.16
318.15 K, x2 = 0.9504 | 1003.28 | 1577.7 | 1.043
318.15 K, x2 = 0.9551 | 1002.26 | 1573.6 | 1.003
318.15 K, x2 = 0.96 | 1001.16 | 1569.4 | 0.96
318.15 K, x2 = 0.9696 | 998.86 | 1561 | 0.876
318.15 K, x2 = 0.9797 | 996.22 | 1552.2 | 0.784
318.15 K, x2 = 0.9902 | 993.24 | 1543.1 | 0.688
318.15 K, x2 = 0.9923 | 992.61 | 1541.4 | 0.668
318.15 K, x2 = 0.9948 | 991.85 | 1539.3 | 0.645
328.15 K, x2 = 0.044 | 1010.15 | 1414.3 | 9.223
328.15 K, x2 = 0.0987 | 1010.89 | 1421.8 | 8.612
328.15 K, x2 = 0.1484 | 1011.57 | 1426.6 | 8.046
328.15 K, x2 = 0.2498 | 1012.99 | 1440.5 | 6.905
328.15 K, x2 = 0.3494 | 1014.43 | 1460.2 | 5.842
328.15 K, x2 = 0.4494 | 1015.82 | 1486.4 | 4.844
328.15 K, x2 = 0.5029 | 1016.47 | 1504.2 | 4.335
328.15 K, x2 = 0.5499 | 1016.94 | 1522.6 | 3.901
328.15 K, x2 = 0.5597 | 1017.01 | 1526.7 | 3.811
328.15 K, x2 = 0.6501 | 1017.26 | 1568.3 | 3.002
328.15 K, x2 = 0.7499 | 1015.84 | 1609.2 | 2.147
328.15 K, x2 = 0.85 | 1010.71 | 1617.9 | 1.36
328.15 K, x2 = 0.9003 | 1005.57 | 1602.5 | 1.012
328.15 K, x2 = 0.9115 | 1004.09 | 1597.2 | 0.942
328.15 K, x2 = 0.9154 | 1003.54 | 1595.2 | 0.917
328.15 K, x2 = 0.927 | 1001.78 | 1589 | 0.848
328.15 K, x2 = 0.9367 | 1000.17 | 1583.4 | 0.793
328.15 K, x2 = 0.9504 | 997.67 | 1575.1 | 0.72
328.15 K, x2 = 0.9551 | 996.73 | 1572.2 | 0.695
328.15 K, x2 = 0.96 | 995.72 | 1569.1 | 0.672
328.15 K, x2 = 0.9696 | 993.62 | 1563.1 | 0.627
328.15 K, x2 = 0.9797 | 991.21 | 1556.8 | 0.582
328.15 K, x2 = 0.9902 | 988.47 | 1550.5 | 0.539
328.15 K, x2 = 0.9923 | 987.9 | 1549.3 | 0.531
328.15 K, x2 = 0.9948 | 987.19 | 1547.8 | 0.521
338.15 K, x2 = 0.044 | 1002.38 | 1395.8 | 6.72
338.15 K, x2 = 0.0987 | 1003.08 | 1403.2 | 6.302
338.15 K, x2 = 0.1484 | 1003.72 | 1408.2 | 5.915
338.15 K, x2 = 0.2498 | 1005.08 | 1422.2 | 5.133
338.15 K, x2 = 0.3494 | 1006.46 | 1441.9 | 4.398
338.15 K, x2 = 0.4494 | 1007.81 | 1468 | 3.698
338.15 K, x2 = 0.5029 | 1008.45 | 1485.6 | 3.337
338.15 K, x2 = 0.5499 | 1008.91 | 1503.8 | 3.027
338.15 K, x2 = 0.5597 | 1008.99 | 1507.9 | 2.961
338.15 K, x2 = 0.6501 | 1009.3 | 1549 | 2.378
338.15 K, x2 = 0.7499 | 1008.09 | 1590.8 | 1.75
338.15 K, x2 = 0.85 | 1003.47 | 1604.3 | 1.156
338.15 K, x2 = 0.9003 | 998.8 | 1593.6 | 0.882
338.15 K, x2 = 0.9115 | 997.45 | 1589.7 | 0.825
338.15 K, x2 = 0.9154 | 996.94 | 1588.2 | 0.806
338.15 K, x2 = 0.927 | 995.33 | 1583.5 | 0.749
338.15 K, x2 = 0.9367 | 993.86 | 1579.2 | 0.702
338.15 K, x2 = 0.9504 | 991.56 | 1572.9 | 0.639
338.15 K, x2 = 0.9551 | 990.71 | 1570.7 | 0.618
338.15 K, x2 = 0.96 | 989.78 | 1568.4 | 0.597
338.15 K, x2 = 0.9696 | 987.84 | 1563.8 | 0.556
338.15 K, x2 = 0.9797 | 985.63 | 1559.2 | 0.515
338.15 K, x2 = 0.9902 | 983.11 | 1554.7 | 0.474
338.15 K, x2 = 0.9923 | 982.58 | 1553.9 | 0.466
338.15 K, x2 = 0.9948 | 981.93 | 1552.9 | 0.457
